Drawing on patent publication US12454529B2, “Piperazine cyclic ureas” (SIRONAX LTD., priority 2020, dated 2025), this text covers EC50 for 24 compounds.

The assay has as its system HT-29 cells. The experiment in a line: HT-29 cell necrosis/necroptosis inhibition (TNF-α + SMAC mimetic + zVAD-FMK; CellTiter-Glo cell viability). It is filed as cell-based. The note with it: Homo sapiens. The method in brief: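 Necroptosis was driven by TNF-α 10 ng/ml plus SMAC mimetic 6 μM and zVAD-FMK 10 μM in serum-free medium, with compounds as a 10-point threefold titration. After 20 h at 37 °C, ATP-based luminescence was read; EC50 values are geometric means of duplicate curves.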
For orientation: In ATP-based viability assays light output follows the ATP content of the culture.

[1] abbreviates: HT-29 cells, TNF-α 10 ng/ml + SMAC mimetic 6 μM + zVAD-FMK 10 μM, 20 hours, geometric mean, 10 points in duplicate, read-out: EC50 (Cell activity; Necrosis/Necroptosis Inhibitory Activity, Compounds 143-323).
Setting [2] is: HT-29 cells, TNF-α 10 ng/ml + SMAC mimetic 6 μM + zVAD-FMK 10 μM, 20 hours, geometric mean, 10 points in duplicate, read-out: EC50 (Cell activity; Necrosis/Necroptosis Inhibitory Activity, Compounds 1-142).

pEC50: −log10 of the molar value. Read-outs that look alike come from different tables or passages of the source.

In general, pEC50 refers to the EC50 on a negative log10 scale, so that one unit is a factor of ten. Consider `Cc1nn2c(c1-c1nc(N3CCN(C(=O)N4N=CC[C@H]4c4cc(F)cc(C#N)c4)CC3)ncc1F)CCC2` [Compound 184, (S)-3-fluoro-5-(1-(4-(5-fluoro-4-(2-methyl-5,6-dihydro-4H-pyrrolo[1,2-b]pyrazol-3-yl)pyrimidin-2-yl)piperazine-1-carbonyl)-4,5-dihydro-1H-pyrazol-5-yl)benzonitrile], for which the pEC50 under setting [1] was 7.00 to 10.00.
Regarding `Cc1c(N)nn(C)c1-c1ccnc(N2CCN(C(=O)N3N=CC[C@H]3c3cc(F)cc(F)c3)CC2)n1` [Compound 143, (S)-(4-(4-(3-amino-1,4-dimethyl-1H-pyrazol-5-yl)pyrimidinyl)piperazin-1-yl)(5-(3,5-difluorophenyl)-4,5-dihydro-1H-pyrazol-1-yl)methanone], under setting [1], the negative-log EC50 (pEC50) is 7.00 to 10.00.
On to `N#Cc1cc(F)cc([C@@H]2CC=NN2C(=O)N2CCN(c3ncc(F)c(-n4ccc(C#N)n4)n3)CC2)c1` [Compound 128, (S)-1-(2-(4-(5-(3-cyano-5-fluorophenyl)-4,5-dihydro-1H-pyrazole-1-carbonyl)piperazin-1-yl)-5-fluoropyrimidin-4-yl)-1H-pyrazole-3-carbonitrile], for which the pEC50 under setting [2] is 7.00 to 10.00.
Take `CCS(=O)(=O)c1c(C)nn(-c2nc(N3CCN(C(=O)N4N=CC[C@H]4c4cc(F)cc(C#N)c4)CC3)ncc2F)c1C` [Compound 205, (S)-3-(1-(4-(4-(4-(ethylsulfonyl)-3,5-dimethyl-1H-pyrazol-1-yl)-5-fluoropyrimidin-2-yl)piperazine-1-carbonyl)-4,5-dihydro-1H-pyrazol-5-yl)-5-fluorobenzonitrile]: under setting [1], the pEC50 was 7.00 to 10.00.
`N#Cc1cc(F)cc([C@@H]2CC=NN2C(=O)N2CCN(c3ncc(F)c(-n4cnc(C(F)(F)F)n4)n3)CC2)c1` [Compound 306, (S)-3-fluoro-5-(1-(4-(5-fluoro-4-(3-(trifluoromethyl)-1H-1,2,4-triazol-1-yl)pyrimidin-2-yl)piperazine-1-carbonyl)-4,5-dihydro-1H-pyrazol-5-yl)benzonitrile]: the pEC50 under setting [1] is 7.00 to 10.00.
`Cc1cnn(C)c1-c1ncc(F)c(N2CCN(C(=O)N3N=CC[C@H]3c3cc(F)cc(F)c3)CC2)n1` [Compound 301, (S)-(5-(3,5-difluorophenyl)-4,5-dihydro-1H-pyrazol-1-yl)(4-(2-(1,4-dimethyl-1H-pyrazol-5-yl)-5-fluoropyrimidin-4-yl)piperazin-1-yl)methanone]: the negative-log EC50 (pEC50) under setting [1] was 7.00 to 10.00.
Consider `O=C(N1CCN(c2ncc(F)c(-n3cnc(C(F)(F)F)n3)n2)CC1)N1N=CC[C@H]1c1cc(F)cc(F)c1` [Compound 305, (S)-(5-(3,5-difluorophenyl)-4,5-dihydro-1H-pyrazol-1-yl)(4-(5-fluoro-4-(3-(trifluoromethyl)-1H-1,2,4-triazol-1-yl)pyrimidin-2-yl)piperazin-1-yl)methanone], for which the pEC50 under setting [1] was 7.00 to 10.00.
On to `Cc1n[nH]nc1-c1nc(N2CCN(C(=O)N3N=CC[C@H]3c3cc(F)cc(C#N)c3)CC2)ncc1F` [Compound 80, (S)-3-fluoro-5-(1-(4-(5-fluoro-4-(5-methyl-2H-1,2,3-triazol-4-yl)pyrimidin-2-yl)piperazine-1-carbonyl)-4,5-dihydro-1H-pyrazol-5-yl)benzonitrile], for which the negative-log EC50 (pEC50) under setting [2] was 7.00 to 10.00.
For `Cc1ncn(-c2nc(N3CCN(C(=O)N4N=CC[C@H]4c4ccccc4)CC3)ncc2F)n1` [Compound 309, (S)-(4-(5-fluoro-4-(3-methyl-1H-1,2,4-triazol-1-yl)pyrimidin-2-yl)piperazin-1-yl)(5-phenyl-4,5-dihydro-1H-pyrazol-1-yl)methanone], the pEC50 under setting [1] was 7.00 to 10.00.
On to `Cc1c(-c2nc(N3CCN(C(=O)N4N=CC[C@H]4c4cc(F)cc(F)c4)CC3)ncc2F)nnn1CC(N)=O` [Compound 31, (S)-2-(4-(2-(4-(5-(3,5-difluorophenyl)-4,5-dihydro-1H-pyrazole-1-carbonyl)piperazin-1-yl)-5-fluoropyrimidin-4-yl)-5-methyl-1H-1,2,3-triazol-1-yl)acetamide], for which the pEC50 under setting [2] is 7.00 to 10.00.
For `Cc1ncc(C2CC=NN2C(=O)N2CCN(c3nc(-c4c(C)cnn4C)ncc3F)CC2)s1` (stereo not drawn) [Compound 162, (4-(2-(1,4-dimethyl-1H-pyrazol-5-yl)-5-fluoropyrimidin-4-yl)piperazin-1-yl)(5-(2-methylthiazol-5-yl)-4,5-dihydro-1H-pyrazol-1-yl)methanone], the pEC50 under setting [1] is 7.00 to 10.00.
Still for that read-out and setting: the result for `Cc1nc(C)n(-c2nc(N3CCN(C(=O)N4N=CC[C@H]4c4ncc(C)s4)CC3)ncc2F)n1` [Compound 241, (S)-(4-(4-(3,5-dimethyl-1H-1,2,4-triazol-1-yl)-5-fluoropyrimidin-2-yl)piperazin-1-yl)(5-(5-methylthiazol-2-yl)-4,5-dihydro-1H-pyrazol-1-yl)methanone] reads 7.00 to 10.00.
For `Cc1nc(C(=O)N2CCC2)nn1-c1nc(N2CCN(C(=O)N3N=CC[C@H]3c3cc(F)cc(C#N)c3)CC2)ncc1F` [Compound 247, (S)-3-(1-(4-(4-(3-(azetidine-1-carbonyl)-5-methyl-1H-1,2,4-triazol-1-yl)-5-fluoropyrimidin-2-yl)piperazine-1-carbonyl)-4,5-dihydro-1H-pyrazol-5-yl)-5-fluorobenzonitrile], the pEC50 (HT-29, 20 h, read-out: EC50 (Cell activity; Necrosis/Necroptosis Inhibitory Activity, Compounds 143-323)) is 7.00 to 10.00.
With `Cc1ncc(-c2nc(N3CCN(C(=O)N4N=CC[C@H]4c4cc(F)cc(C#N)c4)CC3)ncc2F)s1` [Compound 57, (S)-3-fluoro-5-(1-(4-(5-fluoro-4-(2-methylthiazol-5-yl)pyrimidin-2-yl)piperazine-1-carbonyl)-4,5-dihydro-1H-pyrazol-5-yl)benzonitrile], under setting [2], the pEC50 was 7.00 to 10.00.
As for `Cc1nc(C)n(-c2nc(N3CCN(C(=O)N4N=CC[C@H]4c4cc(F)cc(C#N)c4)CC3)ncc2Cl)n1` [Compound 260, (S)-3-(1-(4-(5-chloro-4-(3,5-dimethyl-1H-1,2,4-triazol-1-yl)pyrimidin-2-yl)piperazine-1-carbonyl)-4,5-dihydro-1H-pyrazol-5-yl)-5-fluorobenzonitrile], the negative logarithm of the EC50 (pEC50) under setting [1] is 7.00 to 10.00.
Turning to `CCn1c(C)nn(-c2nc(N3CCN(C(=O)N4N=CC[C@H]4c4cc(F)cc(C#N)c4)CC3)ncc2F)c1=O` [Compound 181, (S)-3-(1-(4-(4-(4-ethyl-3-methyl-5-oxo-4,5-dihydro-1H-1,2,4-triazol-1-yl)-5-fluoropyrimidin-2-yl)piperazine-1-carbonyl)-4,5-dihydro-1H-pyrazol-5-yl) fluorobenzonitrile], under setting [1], the negative-log EC50 (pEC50) was 7.00 to 10.00.
In the case of `Cc1nc(C)n(-c2nc(N3CCN(C(=O)N4N=CC[C@H]4c4cc(F)cc(C#N)c4)CC3)c(F)cc2F)n1` [Compound 233, (S)-3-(1-(4-(6-(3,5-dimethyl-1H-1,2,4-triazol-1-yl)-3,5-difluoropyridin-2-yl)piperazine-1-carbonyl)-4,5-dihydro-1H-pyrazol-5-yl)-5-fluorobenzonitrile], under setting [1], the negative-log EC50 (pEC50) was 7.00 to 10.00.
`Cc1c(N)nn(C)c1-c1nc(N2CCN(C(=O)N3N=CC[C@H]3c3cc(F)cc(F)c3)CC2)ncc1F` [Compound 155, (S)-(4-(4-(3-amino-1,4-dimethyl-1H-pyrazol-5-yl)-5-fluoropyrimidinyl)piperazin-1-yl)(5-(3,5-difluorophenyl)-4,5-dihydro-1H-pyrazol-1-yl)methanone]: under setting [1], the negative-log EC50 (pEC50) is 7.00 to 10.00.
`O=C(N1CCN(c2ncc(F)c(-c3cnn[nH]3)n2)CC1)N1N=CC[C@H]1c1cc(F)cc(F)c1` [Compound 8, (S)-(5-(3,5-difluorophenyl)-4,5-dihydro-1H-pyrazol-1-yl)(4-(5-fluoro-4-(1H-1,2,3-triazol-5-yl)pyrimidin-2-yl)piperazin-1-yl)methanone]: the negative logarithm of the EC50 (pEC50) under setting [2] is 7.00 to 10.00.
As for `Cc1cnn(C)c1-c1cc(N2CCN(C(=O)N3N=CC[C@H]3c3cc(F)cc(F)c3)CC2)ncc1F` [Compound 114, (S)-(5-(3,5-difluorophenyl)-4,5-dihydro-1H-pyrazol-1-yl)(4-(4-(1,4-dimethyl-1H-pyrazol-5-yl)-5-fluoropyridin-2-yl)piperazin-1-yl)methanone], the negative logarithm of the EC50 (pEC50) under setting [2] is 7.00 to 10.00.
Regarding `Cc1nn(-c2cc(N3CCN(C(=O)N4N=CC[C@H]4c4cc(F)cc(C#N)c4)CC3)ncn2)c(C)c1Cl` [Compound 289, (S)-3-(1-(4-(6-(4-chloro-3,5-dimethyl-1H-pyrazol-1-yl)pyrimidin-4-yl)piperazine-1-carbonyl)-4,5-dihydro-1H-pyrazol-5-yl)-5-fluorobenzonitrile], under setting [1], the pEC50 is 7.00 to 10.00.
Still for that read-out and setting: the result for `Cc1nc(C)n(-c2nc(N3CCN(C(=O)N4N=CC[C@H]4c4cncc(F)c4)CC3)c(F)cc2F)n1` [Compound 234, (S)-(4-(6-(3,5-dimethyl-1H-1,2,4-triazol-1-yl)-3,5-difluoropyridin-2-yl)piperazin-1-yl)(5-(5-fluoropyridin-3-yl)-4,5-dihydro-1H-pyrazol-1-yl)methanone] reads 7.00 to 10.00; that for `Cc1nc(C)n(-c2nc(N3CCN(C(=O)N4N=CC[C@H]4c4cncc(F)c4)CC3)ncc2F)n1` [Compound 248, (S)-(4-(4-(3,5-dimethyl-1H-1,2,4-triazol-1-yl)-5-fluoropyrimidin-2-yl)piperazin-1-yl)(5-(5-fluoropyridin-3-yl)-4,5-dihydro-1H-pyrazol-1-yl)methanone], 7.00 to 10.00.
For `Cc1nn(-c2nc(N3CCN(C(=O)N4N=CC[C@H]4c4cc(F)cc(C#N)c4)CC3)ncc2F)c(=O)n1C` [Compound 96, (S)-3-(1-(4-(4-(3,4-dimethyl-5-oxo-4,5-dihydro-1H-1,2,4-triazol-1-yl)-5-fluoropyrimidin-2-yl)piperazine-1-carbonyl)-4,5-dihydro-1H-pyrazol-5-yl)-5-fluorobenzonitrile], the pEC50 under setting [2] is 7.00 to 10.00.
